Measurements: paper PMC12780140, “Structural basis of sodium ion-dependent carnitine transport by OCTN2” (Nature Communications, 2025)

Biological target: T1, OCTN2 (hOCTN2) (Homo sapiens, UniProt O76082, Y211A)
T1 construct: gene SLC22A5; hOCTN2 mutant expressed in Xenopus laevis oocytes
T1 sequence (O76082 1-557 Y211A): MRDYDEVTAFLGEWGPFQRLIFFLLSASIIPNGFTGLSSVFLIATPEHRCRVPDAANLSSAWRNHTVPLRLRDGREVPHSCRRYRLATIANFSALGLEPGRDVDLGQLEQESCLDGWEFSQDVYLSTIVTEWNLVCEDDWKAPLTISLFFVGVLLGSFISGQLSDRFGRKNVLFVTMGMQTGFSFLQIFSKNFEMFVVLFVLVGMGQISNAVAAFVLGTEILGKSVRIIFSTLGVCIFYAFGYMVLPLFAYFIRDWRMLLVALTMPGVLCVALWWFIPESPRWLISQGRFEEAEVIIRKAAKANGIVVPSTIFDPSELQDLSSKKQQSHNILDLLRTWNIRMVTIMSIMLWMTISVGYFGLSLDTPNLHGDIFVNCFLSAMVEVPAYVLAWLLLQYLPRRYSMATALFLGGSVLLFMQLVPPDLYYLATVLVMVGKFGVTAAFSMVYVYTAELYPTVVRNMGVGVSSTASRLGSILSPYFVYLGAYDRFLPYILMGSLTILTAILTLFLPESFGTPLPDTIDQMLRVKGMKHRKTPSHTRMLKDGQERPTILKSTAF
Assay: two-electrode voltage clamp in oocytes, apparent KM (increased versus wildtype)
Assay type: cell-based

## C[N+](C)(C)C[C@H](O)CC(=O)[O-] [L-carnitine]
  two-electrode voltage clamp in oocytes, apparent KM (increased versus wildtype): Mutating this residue to an alanine shows a similar increase in carnitine KM as the mutants above (Fig. 2f).
